Measured values: patent publication US11261190B2, “Dihydropyrimidine compounds and uses thereof in medicine” (SUNSHINE LAKE PHARMA CO., LTD., priority 2017, dated 2022)

Legend:
HBV = test: Anti HBV activity in vitro, viral DNA from HepG2.2.15 cells quantified by qPCR; format: cell-based; details: Hepatitis B virus, qPCR of viral DNA in supernatant, read-out: EC50 against HBV replication
Method: Test 1: Test Method of EC50 of Anti HBV
HBV Cell Line and Culture Conditions
HepG2.2.15 (SELLS, PNAS, 1987 and SELLS, JV, 1988) chromosomes have an integrated complete HBV genome, and stably express viral RNA and viral protein. HepG2.2.15 cells can secrete mature HBV particles, HBsAg and HBeAg to medium. HepG2.2.15 cells were cultured in DMEM containing 10% fetal bovine serum, 100 U/mL penicillin, 100 U/mL streptomycin, 1% non essential amino acid, 1 mM sodium pyruvate and 300 µg/mL G418.
Viral particles DNA secreted from HepG2.2.15 cells can be quantified by qPCR, and the effect of the compound on viral replication can be detected.
Test of Anti HBV Activity In Vitro
8000 HepG 2.2.15 cells per well were seeded into a 96-well plate, the plate was cultured at 37° C. and 5% CO2 for 3 days till the cells grew to full wells. Old liquid medium can be removed and replaced with new medium (200 μL) on day 0.
Formulating the compound and treating the cells in the experiment of anti virus: the compound was dissolved in DMSO to a concentration of 30 mM, and then the compound solution was diluted with DMSO to a concentration of […], and then eight dilutions at 4 fold were performed, the highest concentration is 800 μM. The serial diluted compound was added to the above plate at 1 μL per well, the highest final concentration in the experiment is 4 μM (200 fold dilution). TDF (tenofovir dipiroxil fumarate, Selleck, Cat S1400) has a highest concentration of 4 μM as a positive control. 1 μL of DMSO was added in to the positive control well at a final concentration of 0.5%, TDF was added in to the positive control well at a final concentration of 1 μM.
Detection of Viral Genomic DNA by qPCR
Primer: HBV-For-202, […]; HBV-Rev-315, […]. Copies of virus can be calculated using a standard curve plotted by using plasmid containing HBV genome and using SYBR Premix Ex Taq II Takara DRR081S kit and 1 μL cell culture supernatant as a template. EC50 values of the compound on viral replication were calculated by a four parametric nonlinear regression model using Graphpad Prism 5 software to manage concentration—viral copy number.

[1] = Cytotoxicity in HepG2.2.15 cells (CellTiter Glo); format: cell-based; details: human, highest concentration 150 μM
Method: Test 2: Cytotoxicity and Selectivity Index
Methods of Testing Cytotoxicity and Selectivity Index
The serial diluted compound was added to a 384 wells plate at 50 μL HepG2.2.15 cell per well (3000 cells per well), the highest final concentration in the experiment is 150 μM (200 fold dilution). The plate was cultured at 37° C. in an incubator with C02 for 4 days, and cytotoxicity of the compound was detected using CellTiter Glo agent.
The cytotoxicity of the compound was calculated using the following formulate, cytotoxicity (%)=100−(detection value/mean of DMSO control wells values×100). CC50 values were calculated by a four parametric nonlinear regression model using Graphpad Prism 5 software to manage concentration−cytotoxicity (%). […]

| SMILES | EC50 (HBV) [nM] | CC50 at 4 days [1] [nM] |
| --- | --- | --- |
| COC(=O)C1=C(CN2CCN3C(=O)N(c4ccc(CCC(=O)O)cc4)C[C@@H]3C2)NC(c2nccn2C)=NC1c1ccc(F)cc1Cl (stereo partly drawn) [Example 45, 3-(4-((8aS)-7-((-6-(2-chloro-4-fluorophenyl)-5-(methoxycarbonyl)-2-(1-methyl-1H-imidazol-2-yl)-3,6-dihydropyrimidin-4-yl)methyl)-3-oxohexahydroimidazo[1,5-a]pyrazin-2(3H)-yl)phenyl)propionic Acid] | 8 | > 150000 |
| COC(=O)C1=C(CN2CCN3C(=O)N(c4ccc(C(C)(C)C(=O)O)cc4F)C[C@@H]3C2)NC(c2nccs2)=N[C@H]1c1ccc(F)cc1Cl [Example 33, 2-(4-((S)-7-(((R)-6-(2-chloro-4-fluorophenyl)-5-(methoxycarbonyl)-2-(thiazol-2-yl)-3,6-dihydropyrimidin-4-yl)methyl)-3-oxohexahydroimidazo[1,5-a]pyrazin-2(3H)-yl)-3-fluorophenyl)-2-methylpropionic Acid] | 25 | > 150000 |
| COC(=O)C1=C(CN2CCN3C(=O)N(c4ccc(C(CC(=O)O)NC(=O)OC(C)(C)C)cc4)C[C@@H]3C2)NC(c2nccs2)=N[C@H]1c1ccc(F)cc1Cl (stereo partly drawn) [Example 16, 3-((tert-butoxycarbonyl)amino)-3-(4-((S)-7-(((R)-6-(2-chloro-4-fluorophenyl)-5-(methoxycarbonyl)-2-(thiazol-2-yl)-3,6-dihydropyrimidin-4-yl)methyl)-3-oxohexahydroimidazo[1,5-a]pyrazin-2 (3H)-yl)phenyl)propanoic Acid] | 14 | > 150000 |
| COC(=O)C1=C(CN2CCN3C(=O)N(c4ccc(CCC(=O)O)cc4F)C[C@@H]3C2)NC(c2nccs2)=N[C@H]1c1ccc(F)cc1Cl [Example 34, 3-(4-((S)-7-(((R)-6-(2-chloro-4-fluorophenyl)-5-(methoxycarbonyl)-2-(thiazol-2-yl)-3,6-dihydropyrimidin-4-yl)methyl)-3-oxohexahydroimidazo[1,5-a]pyrazin-2(3H)-yl)-3-fluorophenyl)propionic Acid] | 16 | > 150000 |
| CCOC(=O)C1=C(CN2CCN3C(=O)N(c4ccc(CC(C)(C)C(=O)O)cc4)C[C@@H]3C2)NC(c2nccs2)=N[C@H]1c1ccc(F)cc1Cl [Example 29, 3-(4-((S)-7-(((R)-6-(2-chloro-4-fluorophenyl)-5-(ethoxycarbonyl)-2-(thiazol-2-yl)-3,6-dihydropyrimidin-4-yl)methyl)-3-oxohexahydroimidazo[1,5-a]pyrazin-2(3H)-yl)phenyl)-2,2-dimethylpropionic Acid] | 6 | > 150000 |
| CCOC(=O)C1=C(CN2CCN3C(=O)N(c4ccc(CC(C)(C)C(=O)O)cc4)C[C@@H]3C2)NC(c2nccs2)=N[C@H]1c1ccc(F)cc1Br [Example 28] | 5 | > 150000 |
| COC(=O)C1=C(CN2CCN3C(=O)N(c4cccc(CCC(=O)O)c4)C[C@@H]3C2)NC(c2nccs2)=N[C@H]1c1ccc(F)cc1Cl [Example 37, 3-(3-((S)-7-(((R)-6-(2-chloro-4-fluorophenyl)-5-(methoxycarbonyl)-2-(thiazol-2-yl)-3,6-dihydropyrimidin-4-yl)methyl)-3-oxohexahydroimidazo[1,5-a]pyrazin-2(3H)-yl)phenyl)propionic Acid] | 5 | > 150000 |
| COC(=O)C1=C(CN2CCN3C(=O)N(c4nc(CCC(=O)O)cs4)C[C@@H]3C2)NC(c2nccs2)=N[C@H]1c1ccc(F)cc1Cl [Example 20, 3-(2-((S)-7-(((R)-6-(2-chloro-4-fluorophenyl)-5-(methoxycarbonyl)-2-(thiazol-2-yl)-3,6-dihydropyrimidin-4-yl)methyl)-3-oxohexahydroimidazo[1,5-a]pyrazin-2(3H)-yl)thiazol-4-yl)propionic Acid] | 5 | > 150000 |
| COC(=O)C1=C(CN2CCN3C(=O)N(c4ccc(OC(C)(C)C(=O)O)cc4)C[C@@H]3C2)NC(c2nccs2)=N[C@H]1c1ccc(F)cc1Cl [Example 40, 2-(4-((S)-7-(((R)-6-(2-chloro-4-fluorophenyl)-5-(methoxycarbonyl)-2-(thiazol-2-yl)-3,6-dihydropyrimidin-4-yl)methyl)-3-oxohexahydroimidazo[1,5-a]pyrazin-2(3H)-yl)phenoxy)-2-methylpropionic Acid] | 71 | > 150000 |
| COC[C@@H]1[C@H]2CN(c3ccc(CCC(=O)O)cc3)C(=O)N2CCN1CC1=C(C(=O)OC)[C@H](c2ccc(F)cc2Cl)N=C(c2nccs2)N1 [Example 51B] | 9 | > 150000 |
| COC(=O)C1=C(CN2CCN3C(=O)N(c4cccc(C(C)(C)C(=O)O)c4)C[C@@H]3C2)NC(c2nccs2)=N[C@H]1c1ccc(F)cc1Cl [Example 38, 2-(3-((S)-7-(((R)-6-(2-chloro-4-fluorophenyl)-5-(methoxycarbonyl)-2-(thiazol-2-yl)-3,6-dihydropyrimidin-4-yl)methyl)-3-oxohexahydroimidazo[1,5-a]pyrazin-2(3H)-yl)phenyl)-2-methylpropionic Acid] | 15 | > 150000 |
| CCOC(=O)C1=C(CN2CCN3C(=O)N(c4ccc(CC(=O)O)cc4)C[C@@H]3C2)NC(c2nccs2)=N[C@H]1c1ccc(F)cc1Br [Example 26, 2-(4-((S)-7-(((R)-6-(2-bromo-4-fluorophenyl)-5-(ethoxycarbonyl)-2-(thiazol-2-yl)-3,6-dihydropyrimidin-4-yl)methyl)-3-oxohexahydroimidazo[1,5-a]pyrazin-2(3H)-yl)phenyl)acetic Acid] | 8 | > 150000 |
| CCOC(=O)C1=C(CN2CCN3C(=O)N(c4ccc(CCC(=O)O)cc4)C[C@@H]3C2)NC(c2nccs2)=N[C@H]1c1ccc(F)cc1Cl [Example 23, 3-(4-((S)-7-(((R)-6-(2-chloro-4-fluorophenyl)-5-(ethoxycarbonyl)-2-(thiazol-2-yl)-3,6-dihydropyrimidin-4-yl)methyl)-3-oxohexahydroimidazo[1,5-a]pyrazin-2(3H)-yl)phenyl)prop ionic Acid] | 7 | > 150000 |
| COC(=O)C1=C(CN2CCN3C(=O)N(c4ccc(C(NC(=O)OC(C)(C)C)C(=O)O)cc4)C[C@@H]3C2)NC(c2nccs2)=N[C@H]1c1ccc(F)cc1Cl (stereo partly drawn) [Example 46, 2-((tert-butoxycarbonyl)amino)-2-(4-((S)-7-(((R)-6-(2-chloro-4-fluorophenyl)-5-(methoxycarbonyl)-2-(thiazol-2-yl)-3,6-dihydropyrimidin-4-yl)methyl)-3-oxohexahydroimidazo[1,5-a]pyrazin-2(3H)-yl)phenyl)acetic Acid] | 22 | > 150000 |
| COC(=O)C1=C(CN2CCN3C(=O)N(c4ccc(CCC(N)=O)cc4)C[C@@H]3C2)NC(c2nccs2)=N[C@H]1c1ccc(F)cc1Cl [Example 48, (R)-methyl 6-(((S)-2-(4-(3-amino-3-oxopropyl)phenyl)-3-oxohexahydroimidazo[1,5-a]pyrazin-7(1H)-yl)methyl)-4-(2-chloro-4-fluorophenyl)-2-(thiazol-2-yl)-1,4-dihydropyrimidine-5-carboxylate] | 10 | > 150000 |
| COC(=O)C1=C(CN2CCN3C(=O)N(c4nc(/C=C/C(=O)O)cs4)C[C@@H]3C2)NC(c2nccs2)=N[C@H]1c1ccc(F)cc1Cl [Example 52, (E)-3-(2-((S)-7-(((R)-6-(2-chloro-4-fluorophenyl)-5-(methoxycarbonyl)-2-(thiazol-2-yl)-3,6-dihydropyrimidin-4-yl)methyl)-3-oxohexahydroimidazo[1,5-a]pyrazin-2(3H)-yl)-thiazol-4-yl)acrylic Acid] | 13 | > 150000 |
| COCC(C)(C)NC(=O)CCc1ccc(N2C[C@@H]3CN(CC4=C(C(=O)OC)[C@H](c5ccc(F)cc5Cl)N=C(c5nccs5)N4)CCN3C2=O)cc1 [Example 44, (R)-methyl 4-(2-chloro-4-fluorophenyl)-6-(((S)-2-(4-(3-((1-methoxy-2-methylpropan-2-yl)amino)-3-oxopropyl)phenyl)-3-oxohexahydroimidazo[1,5-a]pyrazin-7(1H)-yl)methyl)-2-(thiazol-2-yl)-1,4-dihydropyrimidine-5-carboxylate] | 10 | > 150000 |
